# Experimental data as given in patent US11535593B2, “3-phosphoglycerate dehydrogenase inhibitors and uses thereof” (Raze Therapeutics, Inc., priority 2016, dated 2022).
# Molecular target: T1, Full length (FL) 3-Phosphoglycerate Dehydrogenase (PHGDH) (Homo sapiens, UniProt O43175)
# T1 construct: Full length (FL) 3-Phosphoglycerate Dehydrogenase (PHGDH) Diaphorase coupled assay (500 uM NAD)
# T1 sequence (O43175 1-533): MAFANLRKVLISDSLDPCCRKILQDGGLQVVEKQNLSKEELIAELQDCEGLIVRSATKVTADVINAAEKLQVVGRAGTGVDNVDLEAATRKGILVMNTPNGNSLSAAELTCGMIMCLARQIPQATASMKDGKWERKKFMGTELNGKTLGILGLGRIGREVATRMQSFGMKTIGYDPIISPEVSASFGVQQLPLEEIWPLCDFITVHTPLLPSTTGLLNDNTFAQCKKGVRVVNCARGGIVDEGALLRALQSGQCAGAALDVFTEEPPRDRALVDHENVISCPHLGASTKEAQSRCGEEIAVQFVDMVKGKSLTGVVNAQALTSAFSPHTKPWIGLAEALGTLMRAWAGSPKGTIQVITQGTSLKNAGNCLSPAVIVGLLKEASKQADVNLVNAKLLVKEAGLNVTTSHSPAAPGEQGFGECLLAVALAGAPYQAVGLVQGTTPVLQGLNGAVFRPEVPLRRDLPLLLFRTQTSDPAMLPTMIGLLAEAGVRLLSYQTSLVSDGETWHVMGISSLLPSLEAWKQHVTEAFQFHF
# Test: Full length (FL) PHGDH Diaphorase coupled assay (500 uM NAD)
# Assay type: biochemical
# Conditions: 5 nM PHGDH, 30° C., 60 minutes
# Description: Full length (FL) 3-Phosphoglycerate Dehydrogenase (PHGDH) Diaphorase coupled assay (500 uM NAD)
# PHGDH activity was determined by detecting the NADH produced during the reaction. Diaphorase was used to catalyze the oxidation of NADH with the concomitant reduction of resazurin to the fluorescent product resorufin. Resorufin fluorescence quantitatively reflected the production of NADH by the PHGDH reaction. To drive the forward reaction, two enzymes in the serine synthesis pathway subsequent to PHGDH, Phosphoserine aminotransferase (PSAT1) and phosphoserine phosphatase (PSPH) were also added to the reaction.
row,IC50 [µM],Compound
1,0.01 to 1,"CCC(C(=O)O)c1ccc([C@@H](CO)NC(=O)c2cc3c(Cl)c(Cl)c(OC)cc3n2C)cc1 (mixture of isomers) [Compound I-4, (±)-2-[4-[(1S)-1-[(4,5-dichloro-6-methoxy-1-methyl-indole-2-carbonyl)amino]-2-hydroxy-ethyl]phenyl]butanoic Acid]"

# Molecular target: T1, Full length (FL) 3-Phosphoglycerate Dehydrogenase (PHGDH)
# Test: Full length (FL) PHGDH Diaphorase coupled assay (20 uM NAD)
# Assay type: biochemical
# Conditions: 10 nM PHGDH, 30° C., 60 minutes, read-out: FL Diaphorase 20 μM NAD (PHGDH activity inhibition, IC50)
# Description: Example 57: Full Length (FL) 3-Phosphoglycerate Dehydrogenase (PHGDH) Diaphorase Coupled Assay (20 uM NAD)
# Serial dilution of compounds were incubated in a volume of 20 μl in 384 well plates with the assay mixture containing 10 nM PHGDH, 500 nM PSAT1, 500 nM PSPH, 20 μM NAD^+, 80 uM 3-phosphoglycerate, 1 mM glutamate, 57 uM Resazurin and 0.2 mg/ml Diaphorase in assay buffer containing 50 mM Trisethanoloamine (TEA) pH8.0, 10 mM MgCl2, 0.01% Tween-20 and 0.05% Bovine Serum Albumin (BSA). The plate was then incubated at 30° C. for 60 minutes and resorufin fluorescence was measured at emission wavelength 598 nm following excitation at 525 nm. The positive control consisted of the complete reaction mixture with 4% DMSO and was set to 0% inhibition. […] Percent inhibition with the compounds was then calculated by normalizing the fluorescence observed at a given compound concentration to the positive and negative controls.
row,IC50 [µM],Compound
1,0.01 to 1,"Cn1c(C(=O)NC(CN)c2ccc(C(=O)O)cc2)cc2c(Cl)c(Cl)ccc21 (racemic) [Compound I-46, (±)-4-(2-Amino-1-(4,5-dichloro-1-methyl-1H-indole-2-carboxamido)ethyl) benzoic Acid]"
2,5 to 10,"CC(=O)NS(=O)(=O)N(C)CCCNC(=O)c1cc2c(Cl)c(Cl)ccc2n1C [Compound I-51, N-[3-[acetylsulfamoyl(methyl)amino]propyl]-4,5-dichloro-1-methyl-indole-2-carboxamide]"
3,> 10,"Cn1c(C(=O)NC(C)(C)CC(N)=O)cc2c(Cl)c(Cl)ccc21 [Compound I-53, N-(3-amino-1,1-dimethyl-3-oxo-propyl)-4,5-dichloro-1-methyl-indole-2-carboxamide]"
4,0.01 to 1,"CC(=O)NS(=O)(=O)NCCC(NC(=O)c1cc2c(Cl)c(Cl)ccc2n1C)c1ccc(C(=O)O)cc1 (stereo not shown) [Compound I-47, 4-[3-(Acetylsulfamoylamino)-1-[(4,5-dichloro-1-methyl-indole-2-carbonyl)amino]propyl]benzoic Acid]"
5,0.01 to 1,"CC(=O)NS(=O)(=O)NCCC(NC(=O)c1cc2c(Cl)c(Cl)ccc2n1C)c1cccc(C(=O)O)c1 (racemic) [Compound I-49, (±)-3-[3-(Acetylsulfamoylamino)-1-[(4,5-dichloro-1-methyl-indole-2-carbonyl)amino]propyl]benzoic Acid]"
6,1 to 5,"CC(=O)NS(=O)(=O)NCCC(NC(=O)c1cc2c(Cl)c(Cl)ccc2n1C)c1ccccc1 (racemic) [Compound I-50, (±)-N-[3-(acetylsulfamoylamino)-1-phenyl-propyl]-4,5-dichloro-1-methyl-indole-2-carboxamide]"
7,1 to 5,"CC(=O)NS(=O)(=O)NCCC(NC(=O)c1cc2c(Cl)c(Cl)ccc2n1C)c1cccc(CO)c1 (racemic) [Compound I-48, (±)-N-[3-(acetylsulfamoylamino)-1-[3-(hydroxymethyl)phenyl]propyl]-4,5-dichloro-1-methyl-indole-2-carboxamide]"
8,0.01 to 1,"CC(=O)NS(=O)(=O)N(C)CCC(NC(=O)c1cc2c(Cl)c(Cl)ccc2n1C)c1ccc(C(=O)O)cc1 (racemic) [Compound I-45, (±)-4-[3-[Acetylsulfamoyl(methyl)amino]-1-[(4,5-dichloro-1-methyl-indole-2-carbonyl)-amino]propyl]benzoic Acid]"
9,1 to 5,"CC(=O)NS(=O)(=O)NCCCNC(=O)c1cc2c(Cl)c(Cl)ccc2n1C [Compound I-52, N-[3-(acetylsulfamoylamino)propyl]-4,5-dichloro-1-methyl-indole-2-carboxamide]"
